Results as given in ChEMBL document CHEMBL5236628 (J Med Chem, 2022).
Converted amounts (≈) assume the structure as drawn. The source made the active and inactive calls. The calls are words filed in the database; no cut-off is given here.

How the values were obtained:
[1] = tested on: Plasmodium falciparum; assay: Antiplasmodial activity against multidrug resistant Plasmodium falciparum K1 incubated for 72 hrs by microplate reader assay; assay type: functional, organism-based; details: K1, 72 h
[2] = Cytotoxicity against CHO cells measured after 48 hrs by MTT assay; details: Chinese hamster
[3] = Selectivity index, ratio of IC50 for Plasmodium falciparum NF54 to IC50 for CHO cells; details: hamster
[4] = physchem; details: buffer, pH 7.4
[5] = tested on: Plasmodium falciparum; assay: microbe, parasite or virus in culture; details: NF54, 72 h
[6] = target: Voltage-gated inwardly rectifying potassium channel KCNH2 (Homo sapiens, UniProt Q12809); assay: Inhibition of human ERG expressed in CHO-K1 cells by Q-patch clamp assay
[7] = tested on: Plasmodium falciparum; assay: Antiplasmodial activity against chloroquine sensitive Plasmodium falciparum NF54 infected in human erythrocytes incubated for 48 hrs followed by addition of [3H]-hypoxanthine and measured after 24 hrs by beta-plate liquid scintillation counting method; assay type: functional, organism-based
[8] = tested on: Plasmodium falciparum; assay: Antiplasmodial activity against multidrug resistant Plasmodium falciparum K1 infected in human erythrocytes incubated for 48 hrs followed by addition of [3H]-hypoxanthine and measured after 24 hrs by beta-plate liquid scintillation counting method; assay type: functional, organism-based
[9] = tested on: Hemozoin; assay: Inhibition of Beta-hematin in Plasmodium falciparum NF54 assessed as hemozoin formation after 36 hrs by flow cytometry analysis
[10] = tested on: HepG2; assay: Cytotoxicity against human HepG2 cells after 48 hrs by CellTiter Glo assay; assay type: toxicity, cell-based; details: hepg2, 48 h
[11] = tested on: Plasmodium falciparum; assay: Antiplasmodial activity against early stage (I to III) Plasmodium falciparum incubated for 48 hrs by bioluminescence assay; assay type: functional, organism-based

Sequence of Voltage-gated inwardly rectifying potassium channel KCNH2 (Q12809 whole entry): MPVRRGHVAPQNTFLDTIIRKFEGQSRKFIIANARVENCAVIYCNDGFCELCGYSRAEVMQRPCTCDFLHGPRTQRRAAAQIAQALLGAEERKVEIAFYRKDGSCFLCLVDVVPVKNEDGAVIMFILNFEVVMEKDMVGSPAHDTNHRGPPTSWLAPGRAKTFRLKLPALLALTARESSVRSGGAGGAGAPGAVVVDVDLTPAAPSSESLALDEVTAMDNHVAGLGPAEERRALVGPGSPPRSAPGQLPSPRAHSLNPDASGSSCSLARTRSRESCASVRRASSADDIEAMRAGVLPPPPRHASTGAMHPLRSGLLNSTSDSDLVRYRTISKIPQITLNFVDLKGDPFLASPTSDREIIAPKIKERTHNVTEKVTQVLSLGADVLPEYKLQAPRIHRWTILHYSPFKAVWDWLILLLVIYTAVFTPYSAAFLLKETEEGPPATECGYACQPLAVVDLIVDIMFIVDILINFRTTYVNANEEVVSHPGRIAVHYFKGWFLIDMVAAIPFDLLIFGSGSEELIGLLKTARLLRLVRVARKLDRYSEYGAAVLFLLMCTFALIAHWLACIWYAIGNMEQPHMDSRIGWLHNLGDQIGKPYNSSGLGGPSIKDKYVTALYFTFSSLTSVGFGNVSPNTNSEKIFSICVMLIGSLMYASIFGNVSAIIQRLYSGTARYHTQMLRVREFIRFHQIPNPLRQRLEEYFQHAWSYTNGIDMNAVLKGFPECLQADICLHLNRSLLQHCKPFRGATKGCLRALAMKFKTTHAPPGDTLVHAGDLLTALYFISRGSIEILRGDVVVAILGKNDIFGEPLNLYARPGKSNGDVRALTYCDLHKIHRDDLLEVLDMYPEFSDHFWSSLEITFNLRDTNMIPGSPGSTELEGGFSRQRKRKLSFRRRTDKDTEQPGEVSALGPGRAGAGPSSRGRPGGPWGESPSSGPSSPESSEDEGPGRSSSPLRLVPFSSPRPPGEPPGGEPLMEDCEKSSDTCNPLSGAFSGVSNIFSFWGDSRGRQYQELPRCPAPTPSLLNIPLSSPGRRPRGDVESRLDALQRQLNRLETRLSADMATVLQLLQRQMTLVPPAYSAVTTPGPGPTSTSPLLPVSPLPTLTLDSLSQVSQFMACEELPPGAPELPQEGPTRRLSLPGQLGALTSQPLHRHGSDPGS

SMILES | solubility kinetic at 2 h [4] [µM] | IC50 [5] [nM] | also measured
Cc1noc(-c2ccc(CCN3CCC(Nc4nc5ccccc5n4Cc4ccc(C(F)(F)F)cc4)CC3)cc2)n1 | 10 (≈ 5.61 µg/mL) | 30 | IC50 [1]: 104 nM; IC50 at 48 h ([2]; CHO cells): 3330 nM; selectivity ratio [3]: 111
Cn1c(NC2CCN(CCc3ccc(-c4nc(C(=O)O)no4)cc3)CC2)nc2ccccc21 | 120 (≈ 53.6 µg/mL) | > 6000 | IC50 [6]: > 30000 nM
Cc1noc(-c2ccc(CCN3CCC(Nc4nc5ccccc5n4C)CC3)cc2)n1 | 160 (≈ 66.6 µg/mL) | 33 | IC50 [1]: 82 nM; IC50 at 48 h ([2]; CHO cells): 9080 nM; IC50 [6]: 350 nM; selectivity ratio [3]: 275
Cn1c(NC2CCN(CCc3ccc(C(=O)O)cc3)CC2)nc2ccccc21 | 160 (≈ 60.6 µg/mL) | > 6000 | 
Cc1nc(-c2ccc(CCN3CCC(Nc4nc5ccccc5n4Cc4ccc(C#N)cc4)CC3)cc2)no1 | 40 (≈ 20.7 µg/mL) | 51 | IC50 [1]: 174 nM; IC50 at 48 h ([2]; CHO cells): 5870 nM; selectivity ratio [3]: 115
NCCn1c(NC2CCN(CCc3ccc(-c4nc(C(F)(F)F)no4)cc3)CC2)nc2ccccc21 | > 200 |  | IC50 [7]: 90 nM; IC50 [8]: 36 nM
CCN(CC)CCCC(C)Nc1ccnc2cc(Cl)ccc12 (stereo not drawn) [CHLOROQUINE] |  |  | IC50 [9]: 22000 nM
Cc1noc(-c2ccc(CCN3CCC(Nc4nc5ccccc5n4CC4CCC(F)(F)CC4)CC3)cc2)n1 | 20 (≈ 10.7 µg/mL) | 460 | 
Cn1c(NC2CCN(CCc3ccc(C(=O)NC4(CO)CC4)cc3)CC2)nc2ccccc21 | 60 (≈ 26.9 µg/mL) | 1730 | IC50 [6]: > 30000 nM
Cc1noc(-c2ccc(CCN3CCC(Nc4nc5ccccc5n4Cc4ccc(C(F)(F)F)nc4)CC3)cc2)n1 | 40 (≈ 22.5 µg/mL) | 44 | IC50 [1]: 173 nM; IC50 at 48 h ([2]; CHO cells): 5630 nM; IC50 [6]: 250 nM; selectivity ratio [3]: 128; inhibition [9]: Active
N#Cc1ccc(Cn2c(NC3CCN(CCc4ccc(-c5noc(C(F)(F)F)n5)cc4)CC3)nc3ccccc32)cc1 | 20 (≈ 11.4 µg/mL) | 21 | IC50 [1]: 49 nM; IC50 at 48 h ([2]; CHO cells): 3850 nM; selectivity ratio [3]: 175; inhibition [9]: Active
Cn1c(NC2CCN(CCc3ccc(C(=O)N4CCNCC4)cc3)CC2)nc2ccccc21 | 120 (≈ 53.6 µg/mL) | 3410 | IC50 [6]: > 30000 nM
Cc1noc(-c2ccc(CCN3CC[C@H](Nc4nc5ccccc5n4Cc4ccc(C#N)cc4)C3)cc2)n1 |  | 515 | 
Cn1c(NC2CCN(CCc3ccc(-c4nc(C5CC5)no4)cc3)CC2)nc2ccccc21 | 60 (≈ 26.6 µg/mL) | 484 | 
Cc1nnc(-c2ccc(CCN3CCC(Nc4nc5ccccc5n4Cc4ccc(C#N)cc4)CC3)cc2)o1 | 20 (≈ 10.4 µg/mL) | 519 | 
Cc1noc(-c2ccc(CCN3CC[C@@H](Nc4nc5ccccc5n4Cc4ccc(C#N)cc4)C3)cc2)n1 |  | 448 | 
CCN(CC)Cc1cc(Nc2ccnc3cc(Cl)ccc23)ccc1O [AMODIAQUINE] |  |  | IC50 [9]: 10000 nM
C[C@@H]1CN=C(c2ccc(CCN3CCC(Nc4nc5ccccc5n4Cc4ccc(C#N)cc4)CC3)cc2)O1 | 60 (≈ 31.1 µg/mL) | 104 | IC50 [1]: 352 nM
N#Cc1ccc(Cn2c(NC3CCN(CCc4ccc(-c5nc(C(F)(F)F)no5)cc4)CC3)nc3ccccc32)cc1 | 10 (≈ 5.72 µg/mL) | 22 | IC50 [1]: 27 nM; IC50 at 48 h ([2]; CHO cells): 750 nM; IC50 [6]: 470 nM; selectivity ratio [3]: 34; inhibition [9]: Active
Cc1noc(-c2ccc(CCN3CCC(Nc4nc5ccccc5n4CC4CCCCC4)CC3)cc2)n1 | 80 (≈ 39.9 µg/mL) | 93 | IC50 [1]: 156 nM; IC50 at 48 h ([2]; CHO cells): 44400 nM; IC50 [6]: 890 nM; selectivity ratio [3]: 477
CN(C)c1ccc2nc3ccc(N(C)C)cc3[s+]c2c1 [METHYLENE BLUE ANHYDROUS] |  |  | IC50 [11]: 200 nM
N#Cc1ccc(Cn2c(NC3CCN(CCc4ccc(-c5ncon5)cc4)CC3)nc3ccccc32)cc1 | 40 (≈ 20.1 µg/mL) | 89 | IC50 [1]: 399 nM; IC50 at 48 h ([2]; CHO cells): 16600 nM; selectivity ratio [3]: 187
C[C@H]1COC(c2ccc(CCN3CCC(Nc4nc5ccccc5n4Cc4ccc(C#N)cc4)CC3)cc2)=N1 | 20 (≈ 10.4 µg/mL) | 74 | IC50 [1]: 263 nM; IC50 at 48 h ([2]; CHO cells): 38900 nM; selectivity ratio [3]: 525
Cc1noc(-c2ccc(CCN3CCC(Nc4nc5ccccc5n4Cc4cccnc4)CC3)cc2)n1 |  | 304 | 
Cc1noc(-c2ccc(CCN3CCC(Nc4nc5ccccc5n4Cc4ccc(C#N)cc4)CC3)cc2)n1 |  | 97 | IC50 [1]: 178 nM; IC50 at 48 h ([2]; cho): 19700 nM
Cn1c(NC2CCN(CCc3ccc(-c4nc(C(C)(C)C)no4)cc3)CC2)nc2ccccc21 |  | 64 | IC50 [1]: 300 nM; IC50 [11]: 1180 nM; Activity [10]: Non-Toxic; IC50 at 48 h ([2]; cho): 4690 nM
Cc1noc(-c2ccc(CCN3CC4(CCN(c5nc6ccccc6n5Cc5ccc(C#N)cc5)C4)C3)cc2)n1 | 40 (≈ 21.2 µg/mL) | 446 | 

The next lines start with results.

solubility kinetic at 2 h [4] [µM] | IC50 [5] [nM] | SMILES | also measured
120 (≈ 56.9 µg/mL) | 496 | COC(=O)c1ccc2c(c1)nc(NC1CCN(CCc3ccc(-c4nc(C)no4)cc3)CC1)n2C | IC50 [6]: 490 nM
120 (≈ 55.2 µg/mL) | 831 | CN(C)Cc1noc(-c2ccc(CCN3CCC(Nc4nc5ccccc5n4C)CC3)cc2)n1 | 
160 (≈ 73.7 µg/mL) | > 6000 | Cc1noc(-c2ccc(CCN3CCC(Nc4nc5cc(C(=O)O)ccc5n4C)CC3)cc2)n1 | 
100 (≈ 43.3 µg/mL) | 567 | Cn1c(NC2CCN(CCc3ccc(-c4nc(CO)no4)cc3)CC2)nc2ccccc21 | 
40 (≈ 18.3 µg/mL) |  | COc1ccc(CCN2CCC(Nc3nc4ccccc4n3Cc3ccc(F)cc3)CC2)cc1 [ASTEMIZOLE] | Activity [10]: Non-Toxic
120 (≈ 50.6 µg/mL) | 4170 | Cn1c(NC2CCN(CCc3ccc(C(=O)NCCO)cc3)CC2)nc2ccccc21 | 
60 (≈ 26.7 µg/mL) | 492 | CC(C)c1noc(-c2ccc(CCN3CCC(Nc4nc5ccccc5n4C)CC3)cc2)n1 | 
60 (≈ 29.7 µg/mL) | 4650 | Cc1noc(-c2ccc(CCN3CCC(Nc4nc5cc(S(C)(=O)=O)ccc5n4C)CC3)cc2)n1 | 
80 (≈ 35.8 µg/mL) | > 6000 | Cn1c(NC2CCN(CCc3ccc(C(=O)N4CCOCC4)cc3)CC2)nc2ccccc21 | 
80 (≈ 37 µg/mL) | 383 | CSCc1noc(-c2ccc(CCN3CCC(Nc4nc5ccccc5n4C)CC3)cc2)n1 | 
100 (≈ 42.1 µg/mL) | > 6000 | Cn1c(NC2CCN(CCc3ccc(C(=O)NCCN)cc3)CC2)nc2ccccc21 | 
80 (≈ 39.6 µg/mL) | 720 | Cc1noc(-c2ccc(CCN3CCC(Nc4nc5cc(Br)ccc5n4C)CC3)cc2)n1 | 
80 (≈ 36.2 µg/mL) | 1160 | Cc1noc(-c2ccc(CCN3CCC(Nc4nc5cc(F)c(F)cc5n4C)CC3)cc2)n1 | 
80 (≈ 35.8 µg/mL) | 3990 | Cn1c(NC2CCN(CCc3ccc(C(=O)N4CCC(O)C4)cc3)CC2)nc2ccccc21 (stereo not drawn) | 
80 (≈ 38.8 µg/mL) | 514 | Cc1noc(-c2ccc(CCN3CCC(Nc4nc5cc(Cl)c(Cl)cc5n4C)CC3)cc2)n1 | 
80 (≈ 34.8 µg/mL) | 834 | Cc1noc(-c2ccc(CCN3CCC(Nc4nc5cc(F)ccc5n4C)CC3)cc2)n1 | IC50 [6]: 28700 nM
80 (≈ 35.3 µg/mL) | 611 | Cc1noc(-c2ccc(CCN3CCC(Nc4nc5cc(C#N)ccc5n4C)CC3)cc2)n1 | 
60 (≈ 26.7 µg/mL) | 163 | Cc1noc(-c2ccc(CCN3CCC(Nc4nc5cc(C)c(C)cc5n4C)CC3)cc2)n1 | 
40 (≈ 19.4 µg/mL) | 422 | Cc1noc(-c2ccc(CCN3CCC(Nc4nc5cc(C(F)(F)F)ccc5n4C)CC3)cc2)n1 | 
120 (≈ 47.1 µg/mL) | 1450 | COC(=O)c1ccc(CCN2CCC(Nc3nc4ccccc4n3C)CC2)cc1 | 
60 (≈ 29.2 µg/mL) | 1280 | Cn1c(NC2CCN(CCc3ccc(C(=O)N4CCN5CCCC5C4)cc3)CC2)nc2ccccc21 (stereo not drawn) | 
80 (≈ 33.4 µg/mL) | 2610 | C=CCNC(=O)c1ccc(CCN2CCC(Nc3nc4ccccc4n3C)CC2)cc1 | 
20 (≈ 8.89 µg/mL) | 702 | Cc1noc(-c2ccc(CCN3CCC(Nc4nc5ccccc5n4C(C)C)CC3)cc2)n1 | 
80 (≈ 35.7 µg/mL) | 309 | COc1ccc2c(c1)nc(NC1CCN(CCc3ccc(-c4nc(C)no4)cc3)CC1)n2C | 
80 (≈ 36.9 µg/mL) | > 6000 | Cn1c(NC2CCN(CCc3ccc(C(=O)N4CCC(C)(O)C4)cc3)CC2)nc2ccccc21 (stereo not drawn) | 
